Source: patent publication US20240287048A1, “SUBSTITUTED ACYL SULFONAMIDES FOR TREATING CANCER” (The Broad Institute, Inc., priority 2020, published 2024)

Tests used:
KAT6B = molecular target: T1, KAT6B (Homo sapiens, UniProt Q8WYB5); assay: Kat6b activity assay (TR-FRET, acetylation of biotinylated histone H4 peptide); type: biochemical; conditions: recombinant human GST-tagged Kat6b (431-end), 30 mins at 22° C., read-out: KAT6B activity assay IC50 [mol/l] (arithmetic mean)
T1 construct: fused on or other part: N-terminal GST tag
T1 sequence (Q8WYB5 723-2073 limits assumed): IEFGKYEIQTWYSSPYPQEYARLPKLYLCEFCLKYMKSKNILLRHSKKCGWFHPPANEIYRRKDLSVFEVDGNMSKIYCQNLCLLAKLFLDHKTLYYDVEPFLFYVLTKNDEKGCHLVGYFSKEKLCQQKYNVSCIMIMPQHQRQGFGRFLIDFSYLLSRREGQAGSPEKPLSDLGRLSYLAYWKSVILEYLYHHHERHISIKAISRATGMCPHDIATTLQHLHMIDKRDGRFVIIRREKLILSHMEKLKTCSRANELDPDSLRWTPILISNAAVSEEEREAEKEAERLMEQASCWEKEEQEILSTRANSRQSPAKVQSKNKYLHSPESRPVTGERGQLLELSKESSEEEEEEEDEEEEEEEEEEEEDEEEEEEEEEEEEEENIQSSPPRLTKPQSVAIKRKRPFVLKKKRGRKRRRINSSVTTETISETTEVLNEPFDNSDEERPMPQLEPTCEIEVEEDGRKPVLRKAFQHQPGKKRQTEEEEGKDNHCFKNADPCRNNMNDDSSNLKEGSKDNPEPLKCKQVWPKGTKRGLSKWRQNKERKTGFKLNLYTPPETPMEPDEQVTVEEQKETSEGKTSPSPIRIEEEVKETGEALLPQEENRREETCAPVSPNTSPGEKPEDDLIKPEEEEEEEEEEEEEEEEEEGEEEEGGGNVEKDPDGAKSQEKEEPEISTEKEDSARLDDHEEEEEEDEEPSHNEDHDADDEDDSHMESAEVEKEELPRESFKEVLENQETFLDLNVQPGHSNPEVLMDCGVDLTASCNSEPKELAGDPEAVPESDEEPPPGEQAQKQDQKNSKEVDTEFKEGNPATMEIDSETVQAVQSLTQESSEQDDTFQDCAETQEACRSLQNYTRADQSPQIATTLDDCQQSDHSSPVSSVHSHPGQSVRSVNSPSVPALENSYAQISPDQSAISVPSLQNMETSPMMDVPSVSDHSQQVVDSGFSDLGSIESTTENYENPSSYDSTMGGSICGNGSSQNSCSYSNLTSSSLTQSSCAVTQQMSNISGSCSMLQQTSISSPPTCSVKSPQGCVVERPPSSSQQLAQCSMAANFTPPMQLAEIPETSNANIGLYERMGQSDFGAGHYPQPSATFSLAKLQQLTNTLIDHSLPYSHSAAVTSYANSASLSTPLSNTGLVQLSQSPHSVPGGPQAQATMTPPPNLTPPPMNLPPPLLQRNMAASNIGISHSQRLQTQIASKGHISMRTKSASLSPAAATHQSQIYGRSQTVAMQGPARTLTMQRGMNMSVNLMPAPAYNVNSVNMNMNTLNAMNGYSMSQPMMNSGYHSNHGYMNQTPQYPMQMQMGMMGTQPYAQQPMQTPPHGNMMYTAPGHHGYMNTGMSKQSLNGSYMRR
From the text: Kat6b inhibitory activities of the compounds described in the present invention were quantified using a Fluorescence Resonance Energy Transfer (TR-FRET) assay which measures acetylation of a synthetic, biotinylated Histone-H4-derived peptide by the enzyme.
Recombinant human GST-tagged Kat6b protein (431-end, N-terminal GST-tag), purified from Baculovirus-infected insect cells (Sf9), was purchased from SignalChem (#K315-381BG). Histone H4 peptide (amino acids 1-24, […]-VLRD-K(Btn)-amide), which was used as substrate, was synthesized by Biosyntan GmbH, Berlin, Germany. Acetyl Coenzyme A was purchased from Sigma-Aldrich (#A-2056).
Kat6b was incubated for 30 mins at 22° C. in the presence of different concentrations of test substances (0 μM, and within the range 0.01-20 μM) in assay buffer [25 mM Tris/HCl pH 8, 1 mM EGTA, 2.5 mM Glutathion, 0.02% Chicken Albumin, 0.05% Pluronic F127, 25 mM NaCl, 500 nM H4 peptide and 600 nM Acetyl Coenzyme A].
The reaction was stopped by addition of Detection Solution (25 mM HEPES pH 7.5, 0.1% BSA, 22 nM SAXL665 (Cisbio #610SAXLE), 100 μM Anacardic Acid (Enzo #ALX-270-381), 1 nM Anti-Histone H4 (ACETYL K8) Antibody (ABCAM #AB15823), 0.5 nM Anti-Rabbit IgG Eu (Perkin Elmer #AD0083).
The fluorescence emission at 620 nm and 665 nm after excitation at 330-350 nm was measured in a TR-FRET measuring instrument, for instance a Rubystar or a Pherastar (both from BMG Lab Technologies, Offenburg, Germany) or a Viewlux (Perkin-Elmer). The ratio of the emission at 665 nm and at […] was used as indicator of the amount of acetylated peptide.
The resulting data (ratio) were normalized, taking 0% inhibition as the mean value of control measurements where all reagents were included. In this case 50 nl DMSO were used instead of compounds. […] IC50 values were determined by regression analysis based on a 4 parameter equation (minimum, maximum, ICM, Hill; Y=Max+(Min−Max)/(1+(X/ICso) Hill) using the Screener Software (Genedata).

[1] = test system: ESR1 transcription in MVLN cells; assay: Repression of ESR1 transcription, MVLN luciferase reporter assay; type: cell-based; conditions: Homo sapiens, luciferase signal after 24 h, read-out: MVLN reporter assay, IC50[M] (arithmetic mean)
How it was run: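 MVLN cells stably carry an ER-responsive vitellogenin A2 element driving luciferase. After 24 h of compound treatment, luciferase was read in lysate as the measure of ERα transcription. Alamar Blue fluorescence (530/590 nm, 2 h) was read first to control for cell loss; samples were run in duplicate.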

ZR-75-1 cells = assay: Proliferation assay in ZR-75-1 cells; type: cell-based; conditions: Homo sapiens, 144 h, Alamar Blue, read-out: ZR75-1 proliferation assay, EC50[M] (arithmetic mean)
How it was run: (§1)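 KAT6A-amplified ZR-75-1 cells (RPMI 1640, 2.5% FBS) and KAT6A-low MDA-MB-436 cells (DMEM/Ham's F12, 2.5% FBS) were seeded at 3000 cells/well. Treatment lasted 144 h at 37 °C, 5% CO2, in triplicate. Viability was read by Alamar Blue (2 h) fluorescence at […].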

MDA-MB-436 cells = assay: Proliferation assay in MDA-MB-436 cells (negative control cell line); type: cell-based; conditions: Homo sapiens, 144 h, Alamar Blue, read-out: MDA-MB-436 proliferation assay, EC50[M] (arithmetic mean)
How it was run: as §1

[2] = test system: E. coli wp2 (E. coli wp2 [pKM101] and E. coli wp2 uvrA, combined exposure); assay: Bacterial reverse gene mutation test Ames MPF Penta I, E. coli wp2; type: cell-based
From the text: The employed commercial assay Ames MPF Penta I comprises the histidine auxotrophic Salmonella tester strains TA98, TA100, TA1535, TA1537 and two tryptophan auxotrophic tester strains E. coli wp2 (E. coli wp2 [pKM101] and E. coli wp2 uvrA, combined exposure). These strains meet the requirements of the OECD guideline 471 for testing chemicals.
Bacterial strains were exposed to various concentrations of the test compounds in a histidine (His) or tryptophane (Trp) deficient medium. As recommended by ICH S2(R1) guideline, the test was conducted in two assay conditions, with and without addition of microsomal enzymes (S9 mix), taking the potential formation of DNA reactive metabolites via xenobiotic biotransformation into account.
The potential of the test compound to induce gene mutations is assessed by comparing the control with the test compounds treated bacterial cultures.

O=C(NS(=O)(=O)c1ccccc1-c1ccccc1)c1cc2ccc(C3CC3)cc2o1 [Example 16, N-([1,1′-biphenyl]-2-sulfonyl)-6-cyclopropyl-1-benzofuran-2-carboxamide]
IC50 (KAT6B): 104 nM | IC50 [1]: 1.02e-06 M | EC50 (ZR-75-1 cells): 5.93e-06 M | EC50 (MDA-MB-436 cells): > 2e-05 M | Result of the bacterial reverse gene mutation test Ames MPF Penta I, E. coli wp2 ([2]; with addition of S9 mix): negative | Result of the bacterial reverse gene mutation test Ames MPF Penta I, E. coli wp2 ([2]; without addition of S9 mix): negative

CCOc1ccccc1S(=O)(=O)NC(=O)c1cc2ccc(C(C)C)cc2o1 [Example 55, N-(2-Ethoxybenzenesulfonyl)-6-(propan-2-yl)-1-benzofuran-2-carboxamide]
IC50 (KAT6B): 538 nM | IC50 [1]: 1.34e-06 M | EC50 (ZR-75-1 cells): 1.27e-05 M | EC50 (MDA-MB-436 cells): > 2e-05 M | Result of the bacterial reverse gene mutation test Ames MPF Penta I, E. coli wp2 ([2]; with addition of S9 mix): negative | Result of the bacterial reverse gene mutation test Ames MPF Penta I, E. coli wp2 ([2]; without addition of S9 mix): negative
